Data on seven compounds can be found in patent US20130014428A1, “METHODS OF MONITORING AND CONTROLLING THE WALNUT TWIG BEETLE, PITYOPHTHORUS JUGLANDIS” (The United States of America as Represented by the …, priority 2011, published 2013).

The test system of assay [1] is walnut twig beetle (WTB), Pityophthorus juglandis. The assay can be described thus: Example 1 Field Test 2: flight response to X with and without racemic conophthorin. The conditions noted are these: tested as a racemic mixture. It counts as in vivo. How it is done:
(§1) Field Bioassays of Semiochemicals. To test the attractiveness of the various compounds of interest, some of the commercially available materials listed above were poured into 15 ml capped polyethylene bottles (Product #s A1-1050/002, A1-1055/002; Contech Enterprises Inc., Delta, British Columbia, Canada) and attached to yellow sticky card traps (Trécé, Adair, OK). In addition, synthesized (+) and (−) enantiomers of trans-conophthorin were tested in 400 μl polyethylene Eppendorf microcentrifuge tubes. Four field studies were conducted (Table 2) that tested the flight responses to: 3-methyl-2-buten-l-ol and related isomers (Field Test 1); 3-methyl-2-buten-l-ol with and without racemic trans-conophthorin (Field Test 2); 3-methyl-2-buten-l-ol with and without the purified enantiomers of trans-conophthorin (Field Test 3); and 3-methyl-2-buten-l-ol with and without racemic chalcogran (Field Test 4).
(§2) Statistical Analysis. Field Tests 1-4 were each analyzed for treatment effect by using Friedman's non-parametric analysis of variance. (See Zar, J. H. 2010. Biostatistical Analysis, 5th Ed. Pearson Prentice Hall, New Jersey). Males and females were subjected to separate analyses. All treatments within experiments yielding a significant treatment effect were compared by using an a posteriori Nemenyi test (Zar 2010) with experimentwise α=0.05. Sex ratios of responding WTB were determined using Cochran's method for unbiased sampling (See Cochran, W. G. 1977. Sampling Techniques, 3rd ed. John Wiley, New York), with 95% confidence intervals calculated by using the Clopper-Pearson method. (See Zar, J. H. 2010. Biostatistical Analysis, 5th Ed. Pearson Prentice Hall, New Jersey).

The subject of the next assay is P. juglandis. The assay can be described thus: GC-EAD (electroantennal detection) of volatile extract. The conditions noted are these: extract of J. hindsii with male and female P. juglandis feeding 45 hr. More on the design: species or system Pityophthorus juglandis. How it is done:
Gas Chromatography-Electroantennal Detection (GC-EAD). GC-EAD analysis was performed on the extract of walnut (Juglans hindsii) with male and female P. juglandis feeding for 45 hr (pentane extract (7)). The sample was analyzed with an HP5890 GC with the following conditions: DB-5 column 30 m×0.32, oven 50° C. for 1 min, temperature programmed at 20° C./min to a final temperature of 280° C.

The test system of assay [2] is WTB. The assay can be described thus: Example 2 Field Test 3: X and racemic trans-pityol. Format: in vivo, Pityophthorus juglandis. How it is done:
Finally, a flight bioassay of the effect of the compound racemic trans-“pityol” [2-(1-hydroxy-1-methylethyl)-5-methyltetrahydrofuran] was conducted in late summer/early fall at Wolfskill Experimental Orchards. Pityol is a component of the aggregation pheromone of conifer-infesting Pityophthorus species. The response of WTB to racemic trans-pityol (formulated in a polyvinylchloride plastic bubble cap release device, 40 mg load, 0.2 mg/d release rate at 20° C., product #300000272, Contech Enterprises) and pityol in combination with 3-methyl-2-buten-1-ol (release rate 15-80 mg/d, LDPE plastic pouch Contech) was tested (Table 3, Field Test 3). The four treatments were replicated in three spatial blocks and the treatments were re-randomized among the four trap stations in a block each time the traps were emptied (nearly every day).
(§3) Statistical Analyses. Analysis of treatment effects for the pouch vs. bottle experiment was done by using a sign test. (See Zar, J. H. 2010. Biostatistical Analysis. 5th ed. Pearson Prentice Hall, Englewood Cliffs, N.J.) The other four experiments were analyzed for treatment effect by using Friedman's non-parametric analysis of variance. Id. In all experiments, males and females were analyzed separately. All treatments within experiments yielding a significant treatment effect were compared by using an a posteriori Nemenyi test with experimentwise α=0.05. Id. For all experiments, differences among proportions of female WTB responding to treatments were analyzed by comparing 95% confidence intervals determined with the Clopper-Pearson method. Id.

Assay [3] has as its system walnut twig beetle (WTB), Pityophthorus juglandis. Description: Example 1 Field Test 3: flight response to X with and without enantiomers of trans-conophthorin. Format: in vivo. The following applies: enantiomers of Y tested separately. How it is done:
as §1, §2

Assay [4] has the same test system. The assay can be described thus: Example 1 Field Test 1: flight response to X and related isomers, yellow sticky card traps. Format: in vivo. The following applies: Davis CA; for trap catches, female WTB / trap catches, male WTB: about three months in summer, N=21. How it is done: Field Bioassays of Semiochemicals. […] Contech Enterprises Inc., Delta, British Columbia, Canada) and attached to yellow sticky card traps ([…], OK). In addition, synthesized (+) and (-) enantiomers of trans-conophthorin were tested in 400 μl polyethylene Eppendorf microcentrifuge tubes. Four field studies were conducted (Table 2) that tested the flight responses to: 3-methyl-2-buten-l-ol and related isomers (Field Test 1); 3-methyl-2-buten-l-ol with and without racemic trans-conophthorin (Field Test 2); 3-methyl-2-buten-l-ol with and without the purified enantiomers of trans-conophthorin (Field Test 3); and 3-methyl-2-buten-l-ol with and without racemic chalcogran (Field Test 4). [table] Statistical Analysis. Field Tests 1-4 were each analyzed for treatment effect by using Friedman's non-parametric analysis of variance. (See Zar, J. H. 2010. Biostatistical Analysis, 5th Ed. Pearson Prentice Hall, New Jersey). Males and females were subjected to separate analyses. All treatments within experiments yielding a significant treatment effect were compared by using an a posteriori Nemenyi test (Zar 2010) with experimentwise α=0.05. Sex ratios of responding WTB were determined using Cochran's method for unbiased sampling (See Cochran, W. G. 1977. Sampling Techniques, 3rd ed. John Wiley, New York), with 95% confidence intervals calculated by using the Clopper-Pearson method. (See Zar, J. H. 2010. Biostatistical Analysis, 5th Ed. Pearson Prentice Hall, New Jersey).

For assay [5], the system named is WTB. The assay can be described thus: Example 2 Field Test 1: X in combination with X-3 and X-2. The following applies: alone or in combination, at the release rates tested. It counts as in vivo, Pityophthorus juglandis. How it is done:
as §3, with “Field Bioassays of 3-methyl-2-buten-1-ol in combination with other compounds. The flight response of WTB to 3-methyl-2-buten-1-ol in combination with other compounds was also tested. […] Louis, Mo. […] The five treatments were replicated in three spatial blocks and the treatments were re-randomized among the five trap stations in a block each time the traps were emptied (nearly every day). [table] Statistical” for “Statistical”

The test system of assay [6] is walnut twig beetle (WTB), Pityophthorus juglandis. The assay can be described thus: Example 1 Field Test 4: flight response to X with and without racemic chalcogran. It counts as in vivo. How it is done: as §1, §2
[7] abbreviates: 4-unit Lindgren funnel traps, X 15-80 mg/d, pityol 0.2 mg/d, N=93.
[8] abbreviates: yellow sticky card traps, about one month late summer, Davis CA, N=13.

`CC1CCCC2(CCCO2)O1` (racemic) [Y, 7-methyl-1,6-dioxaspiro[4,5]decane]: the “effect on flight response” value in assay [1] is listed as “interruptive or repellent”. For the same compound, in the assay with P. juglandis, the “antennal activity by GC-EAD” value is recorded as “antenally active”.

Turning to `CC1CCC(C(C)(C)O)O1` (racemic) [pityol, 2-(1-hydroxy-1-methylethyl)-5-methyltetrahydrofuran], the “proportion of females responding” value in the assay on WTB [2] (4-unit Lindgren funnel traps) is given as 0.24. Moreover, in the assay with WTB [2] (setting [7]), the “trap catches, female WTB” value came out at 11 and the “trap catches, male WTB” value worked out at 32. Further, in the assay on WTB [2] (at the release rates tested), the “effect on response to 3-methyl-2-buten-1-ol” value is on record as “did not significantly affect the response to 3-methyl-2-buten-1-ol”.

On to `CC1CCCC2(CCCO2)O1` (single isomer, unassigned; (-)) [(−)-Y, (−)-trans-conophthorin], for which the “effect on flight response” value in assay [3] is listed as “behaviorally active component”.

For `CC(C)=CC=O` [X-1, 3-methyl-2-butenal], in assay [4], the “proportion of females responding” value was determined as 0.65; the “trap catches, female WTB” value was 20; the “trap catches, male WTB” value was 11.

On to `CC(C)CCO` [X-2, 3-methyl-1-butanol], for which, in assay [4], the “proportion of females responding” value was 0.48; the “trap catches, female WTB” value amounted to 21; the “trap catches, male WTB” value is 23. In the assay on WTB [5], the “effect on flight response to 3-methyl-2-buten-1-ol” value was “did not significantly affect the flight response of WTB”.

In the case of `C=C(C)CCO` [X-3, 3-methyl-3-buten-1-ol], in assay [4], the “proportion of females responding” value is recorded as 0.33; the “trap catches, female WTB” value is recorded as 2; the “trap catches, male WTB” value came out at 4. In the assay on WTB [5], the “effect on flight response to 3-methyl-2-buten-1-ol” value is listed as “did not significantly affect the flight response of WTB”.

Take `CCC1CCC2(CCCO2)O1` (stereo not shown) [Z, 2-ethyl-1,6,-dioxaspiro [4,4]nonane]: the “effect on flight response” value in assay [6] (tested as a racemic mixture) is “interruptive or repellent”. Also, the “proportion of females responding” value in assay [6] (yellow sticky card traps, Davis CA) was determined as 0.67. Moreover, in assay [6] (setting [8]), the “trap catches, female WTB” value is “½” and the “trap catches, male WTB” value is on record as “½”.
